# Source: publication PMC6467784 (Journal of medicinal chemistry, 2019)
# Tests used:
# [1] = molecular target: σ1 (Homo sapiens, UniProt Q99720); assay: PDSP off-target binding, σ1
# [2] = tested on: anesthetized rat; assay: Cardiovascular effects in the anesthetized rat; type: in vivo; conditions: 3 mg/kg, ip., preliminary
# [3] = tested on: mouse; conditions: 60 mg/kg
# [4] = tested on: A1AR, A3AR; conditions: ref [30]; cited from earlier work
# [5] = tested on: GPCR assays; assay: Broad GPCR screening; type: cell-based; conditions: at 10 μM; DiscoverX
# [6] = Stability in simulated intestinal fluid; type: in vitro ADME
# [7] = Human liver microsomes; type: in vitro ADME
# [8] = Pharmacokinetics in male cynomolgus monkeys; type: in vivo, cynomolgus monkey; conditions: one-day observation period
# [9] = tested on: female rhesus monkeys; assay: Tolerability in female rhesus monkeys; type: in vivo, rhesus monkey; conditions: 1 or 3 mg/kg in a food treat; up to 4 h post-dosing
# [10] = tested on: 403 kinases; assay: Kinase screen; type: binding; conditions: at 10 μM; among 403 kinases
# [11] = tested on: wild-type C57BL/6J mice; conditions: 3 mg/kg ip.; average from dosing to 60 min; ref [30]; cited from earlier work
# [12] = molecular target: rA2AAR; conditions: read-out: A2AAR Ki; rat (r); ref [17],[23],[30],[33],[34],[43],[45]; cited from earlier work
# [13] = molecular target: hA2AAR (Homo sapiens, UniProt P29274); conditions: read-out: A2AAR Ki; human (h); ref [1],[17],[23],[30],[32]-[35],[43],[45]; cited from earlier work
# hA2AAR, sequence (P29274 whole entry): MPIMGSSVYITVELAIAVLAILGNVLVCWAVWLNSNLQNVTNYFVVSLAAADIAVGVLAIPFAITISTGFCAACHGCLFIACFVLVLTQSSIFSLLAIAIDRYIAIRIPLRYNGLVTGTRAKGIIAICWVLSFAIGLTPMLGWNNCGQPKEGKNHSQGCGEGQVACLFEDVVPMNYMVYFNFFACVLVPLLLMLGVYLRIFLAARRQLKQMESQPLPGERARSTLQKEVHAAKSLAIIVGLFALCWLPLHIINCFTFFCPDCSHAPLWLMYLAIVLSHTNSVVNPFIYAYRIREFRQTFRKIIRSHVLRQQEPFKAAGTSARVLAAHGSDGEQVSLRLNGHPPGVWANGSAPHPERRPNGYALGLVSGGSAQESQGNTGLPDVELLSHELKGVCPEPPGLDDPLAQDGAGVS
# [14] = molecular target: T1, hA1AR (Homo sapiens, UniProt P30542); conditions: read-out: A1AR Ki; human (h); ref [1],[17],[23],[30],[32]-[36],[43]-[45]; cited from earlier work
# T1 sequence (P30542 1-326): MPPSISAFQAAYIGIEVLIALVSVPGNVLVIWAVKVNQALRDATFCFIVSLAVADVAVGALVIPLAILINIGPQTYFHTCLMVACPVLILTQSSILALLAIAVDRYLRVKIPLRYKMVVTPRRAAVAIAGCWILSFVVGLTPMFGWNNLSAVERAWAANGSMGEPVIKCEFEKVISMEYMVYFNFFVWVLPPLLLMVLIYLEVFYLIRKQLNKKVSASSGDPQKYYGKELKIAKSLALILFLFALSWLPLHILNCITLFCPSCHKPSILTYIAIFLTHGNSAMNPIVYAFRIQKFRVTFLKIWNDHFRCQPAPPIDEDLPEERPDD
# [15] = molecular target: hA3AR (Homo sapiens, UniProt P0DMS8); conditions: read-out: A3AR Ki; human (h); ref [1],[17],[23],[30],[32]-[35],[43],[45]; cited from earlier work
# hA3AR, sequence (P0DMS8 whole entry): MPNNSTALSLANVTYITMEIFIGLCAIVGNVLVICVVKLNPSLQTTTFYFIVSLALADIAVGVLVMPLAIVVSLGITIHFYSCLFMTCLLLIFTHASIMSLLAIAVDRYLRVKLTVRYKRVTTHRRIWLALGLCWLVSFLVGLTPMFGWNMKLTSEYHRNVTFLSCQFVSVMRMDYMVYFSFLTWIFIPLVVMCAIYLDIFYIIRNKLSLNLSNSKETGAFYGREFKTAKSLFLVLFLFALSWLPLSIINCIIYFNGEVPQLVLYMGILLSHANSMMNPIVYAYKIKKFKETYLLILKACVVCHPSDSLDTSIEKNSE
# [16] = tested on: off-target receptors and transporters; assay: PDSP off-target screen; type: binding, human
# [17] = molecular target: rA1AR (Rattus norvegicus, UniProt P25099); conditions: read-out: A1AR Ki; rat (r); ref [17],[23],[30],[33],[34],[43],[45]; cited from earlier work
# rA1AR, sequence (P25099 whole entry): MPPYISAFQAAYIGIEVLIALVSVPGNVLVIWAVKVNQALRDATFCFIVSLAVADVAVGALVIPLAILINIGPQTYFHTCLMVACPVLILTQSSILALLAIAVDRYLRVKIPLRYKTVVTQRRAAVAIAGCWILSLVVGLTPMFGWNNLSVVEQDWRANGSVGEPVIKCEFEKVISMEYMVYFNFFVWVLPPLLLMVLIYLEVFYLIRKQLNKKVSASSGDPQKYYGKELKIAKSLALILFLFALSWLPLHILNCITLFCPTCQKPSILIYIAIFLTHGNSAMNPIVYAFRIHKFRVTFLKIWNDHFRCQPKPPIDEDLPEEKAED
# [18] = molecular target: DAT (Homo sapiens, UniProt Q01959); assay: PDSP off-target binding, DAT; conditions: read-out: Off-target Ki, DAT
# DAT, sequence (Q01959 whole entry): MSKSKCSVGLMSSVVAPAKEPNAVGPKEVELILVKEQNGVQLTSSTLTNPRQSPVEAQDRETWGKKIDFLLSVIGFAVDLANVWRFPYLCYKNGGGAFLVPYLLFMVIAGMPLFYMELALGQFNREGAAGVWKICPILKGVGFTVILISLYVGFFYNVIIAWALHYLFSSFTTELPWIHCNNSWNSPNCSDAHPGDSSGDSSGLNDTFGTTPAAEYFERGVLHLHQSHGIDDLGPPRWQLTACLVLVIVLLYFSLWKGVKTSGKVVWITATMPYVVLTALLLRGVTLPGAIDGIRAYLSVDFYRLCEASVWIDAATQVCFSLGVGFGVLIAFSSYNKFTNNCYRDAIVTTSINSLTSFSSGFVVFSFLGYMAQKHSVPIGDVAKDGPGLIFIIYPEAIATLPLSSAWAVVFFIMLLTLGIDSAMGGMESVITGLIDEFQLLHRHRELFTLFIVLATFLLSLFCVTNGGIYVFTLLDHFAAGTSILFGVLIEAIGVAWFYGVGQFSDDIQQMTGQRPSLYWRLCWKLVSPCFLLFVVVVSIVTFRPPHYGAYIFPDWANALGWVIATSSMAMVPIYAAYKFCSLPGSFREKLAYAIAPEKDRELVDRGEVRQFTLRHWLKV
# [19] = molecular target: mA2AAR (Mus musculus, UniProt Q60613); conditions: mouse (m); at 10 μM; ref [30],[33],[34],[43]; cited from earlier work
# mA2AAR, sequence (Q60613 whole entry): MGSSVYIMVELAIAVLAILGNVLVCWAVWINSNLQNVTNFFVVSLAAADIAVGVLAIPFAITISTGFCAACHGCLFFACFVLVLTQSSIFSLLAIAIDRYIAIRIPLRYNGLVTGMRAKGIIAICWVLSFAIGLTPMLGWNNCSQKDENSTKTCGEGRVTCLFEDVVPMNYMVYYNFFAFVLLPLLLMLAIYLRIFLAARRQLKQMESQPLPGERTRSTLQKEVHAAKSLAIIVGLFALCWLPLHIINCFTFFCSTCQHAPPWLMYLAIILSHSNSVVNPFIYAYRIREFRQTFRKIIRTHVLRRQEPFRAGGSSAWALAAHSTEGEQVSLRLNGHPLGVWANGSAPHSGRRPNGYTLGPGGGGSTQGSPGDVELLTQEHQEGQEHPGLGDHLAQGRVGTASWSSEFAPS
# [20] = molecular target: mA3AR (Mus musculus, UniProt Q61618); conditions: read-out: A3AR Ki; mouse (m); ref [17],[23],[30],[32]-[34],[43],[45]; cited from earlier work
# mA3AR, sequence (Q61618 whole entry): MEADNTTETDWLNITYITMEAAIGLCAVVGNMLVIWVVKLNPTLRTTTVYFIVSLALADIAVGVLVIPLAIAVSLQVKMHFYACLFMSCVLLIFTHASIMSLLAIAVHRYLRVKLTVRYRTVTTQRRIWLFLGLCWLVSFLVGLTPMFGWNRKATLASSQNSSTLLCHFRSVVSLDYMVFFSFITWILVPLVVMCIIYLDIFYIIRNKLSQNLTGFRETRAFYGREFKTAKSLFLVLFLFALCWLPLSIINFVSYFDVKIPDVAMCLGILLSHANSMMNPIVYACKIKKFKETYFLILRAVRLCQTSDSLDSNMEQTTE
# [21] = molecular target: T2, mA1AR (Mus musculus, UniProt Q60612); conditions: read-out: A1AR Ki; mouse (m); ref [17],[23],[30],[32]-[34],[36],[43]-[45]; cited from earlier work
# T2 sequence (Q60612 1-326): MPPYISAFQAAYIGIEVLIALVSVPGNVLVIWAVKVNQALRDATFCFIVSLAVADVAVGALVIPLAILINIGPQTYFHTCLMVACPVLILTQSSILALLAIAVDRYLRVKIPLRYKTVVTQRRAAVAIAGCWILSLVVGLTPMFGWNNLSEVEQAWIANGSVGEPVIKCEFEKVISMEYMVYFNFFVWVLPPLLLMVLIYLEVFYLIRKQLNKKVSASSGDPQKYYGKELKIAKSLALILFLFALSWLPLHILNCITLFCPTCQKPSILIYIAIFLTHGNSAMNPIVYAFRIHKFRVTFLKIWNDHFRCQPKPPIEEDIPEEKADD
# [22] = molecular target: 5HT2C (Homo sapiens, UniProt P28335); assay: PDSP off-target binding, 5HT2C; conditions: read-out: Off-target Ki, 5HT2C
# 5HT2C, sequence (P28335 33-458): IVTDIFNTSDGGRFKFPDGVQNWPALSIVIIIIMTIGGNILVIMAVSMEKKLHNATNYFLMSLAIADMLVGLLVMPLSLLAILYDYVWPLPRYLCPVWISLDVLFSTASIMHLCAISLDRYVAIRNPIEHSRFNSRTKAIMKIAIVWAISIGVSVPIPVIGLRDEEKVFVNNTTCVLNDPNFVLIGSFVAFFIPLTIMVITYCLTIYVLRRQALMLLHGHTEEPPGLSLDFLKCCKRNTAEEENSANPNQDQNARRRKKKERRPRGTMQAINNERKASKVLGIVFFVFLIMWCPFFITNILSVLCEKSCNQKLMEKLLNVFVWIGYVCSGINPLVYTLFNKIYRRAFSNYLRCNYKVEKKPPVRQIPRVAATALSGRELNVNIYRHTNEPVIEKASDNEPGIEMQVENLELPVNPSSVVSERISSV
# σ1, sequence (Q99720 whole entry): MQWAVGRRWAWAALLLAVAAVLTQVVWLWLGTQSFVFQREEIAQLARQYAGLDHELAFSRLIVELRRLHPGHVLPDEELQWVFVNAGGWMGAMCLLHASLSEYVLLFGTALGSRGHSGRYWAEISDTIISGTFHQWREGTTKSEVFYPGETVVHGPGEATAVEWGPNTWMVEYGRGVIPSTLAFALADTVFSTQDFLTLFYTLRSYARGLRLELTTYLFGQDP
smiles,measurement,setting,value
CNC(=O)[C@]12C[C@@H]1[C@@H](n1cnc3c(NC4CCCC4)nc(Cl)nc31)[C@H](O)[C@@H]2O [Compound 6],Ki,[1],1550 nM
O[C@@H]1[C@H](O)[C@@H]2C[C@@H]2[C@H]1n1cnc2c(NC(C3CC3)C3CC3)nc(Cl)nc21 [Compound 7],Effects on heart rate and blood pressure,[2],"modest effects on heart rate (slow onset of reduction) and blood pressure (a modest, transient rise)"
same,Lethality in the mouse,[3],non-lethal
same,ARs causing hypothermia,[4],A3AR >> A1AR[30]
same,Broad GPCR screening result,[5],not promiscuous
same,Stability in simulated intestinal fluid,[6],stable
same,Stability in human liver microsomes,[7],stable
same,Clinical observations,[8],no clinical observations
same,Adverse reaction after oral dosing,[9],no adverse reaction
same,Hits in kinase screen,[10],only two weak hits
same,Tb,[11],33.4±1.7 °C
OC[C@H]1O[C@@H](n2cnc3c(NC(C4CC4)C4CC4)ncnc32)[C@H](O)[C@@H]1O [Compound 8],Ki,[12],1370 nM
same,Ki,[13],1470 ± 380 nM
same,Ki,[14],0.85 ± 0.27 nM
same,Ki,[15],41.3 ± 5.3 nM
same,"Off-target, receptor: interactions found",[16],none
Nc1nc(Cl)nc2c1ncn2[C@H]1[C@H](O)[C@H](O)[C@]2(CO)C[C@H]12 [Compound 21],Ki,[17],273 nM
same,"Off-target, receptor: interactions found",[16],none
OCC12CC1C(n1cnc3c(NC(C4CC4)C4CC4)nc(Cl)nc31)C(O)C2O (centres unmarked) [Compound 23],Ki,[18],4.75 µM
same,Ki,[13],2200 nM
same,A2AAR % inhibition,[19],41±9%
same,Ki,[14],39 ± 17 nM
same,Ki,[20],1030 nM
same,Ki,[21],0.71 nM
same,Ki,[15],1600 ± 210 nM
same,Ki,[22],1850 nM
